Active and inactive are the calls of the source. Cut-off read from the data, not from the text of the source: actives have a measured IC50 and inactives only a lower limit.
target: Envelope glycoprotein gp160 (Human immunodeficiency virus 1, UniProt Q6QLK5); assay: cell-free HIV fusion peptide-binding blockers – biochemical, uHTS, fluorescence dequenching, […] (AID 1986)
Sequence (Q6QLK5 whole entry, the tested form may be a part): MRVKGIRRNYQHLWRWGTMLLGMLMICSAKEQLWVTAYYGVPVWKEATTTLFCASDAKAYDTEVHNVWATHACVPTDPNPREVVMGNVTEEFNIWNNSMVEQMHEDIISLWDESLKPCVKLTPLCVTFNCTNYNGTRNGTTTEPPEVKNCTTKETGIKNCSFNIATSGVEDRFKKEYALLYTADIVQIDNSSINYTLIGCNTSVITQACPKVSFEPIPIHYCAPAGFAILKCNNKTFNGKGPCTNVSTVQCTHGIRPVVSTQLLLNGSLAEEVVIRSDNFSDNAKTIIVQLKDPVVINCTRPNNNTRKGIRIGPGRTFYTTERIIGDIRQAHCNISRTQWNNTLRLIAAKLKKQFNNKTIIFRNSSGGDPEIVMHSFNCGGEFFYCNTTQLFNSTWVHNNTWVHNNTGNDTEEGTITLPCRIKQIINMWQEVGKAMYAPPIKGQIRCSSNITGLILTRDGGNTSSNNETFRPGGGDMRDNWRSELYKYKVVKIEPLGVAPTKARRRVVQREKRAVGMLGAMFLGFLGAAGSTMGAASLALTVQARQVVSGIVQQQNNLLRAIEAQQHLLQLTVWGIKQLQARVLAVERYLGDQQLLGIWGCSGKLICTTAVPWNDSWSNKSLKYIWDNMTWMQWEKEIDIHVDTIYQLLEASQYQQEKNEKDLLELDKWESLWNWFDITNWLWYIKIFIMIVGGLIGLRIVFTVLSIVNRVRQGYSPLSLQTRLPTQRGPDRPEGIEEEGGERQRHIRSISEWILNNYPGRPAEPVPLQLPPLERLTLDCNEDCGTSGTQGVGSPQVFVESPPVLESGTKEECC

SMILES	IC50
O=C(O)C1Nc2c(cccc2C(F)(F)F)C2C=CCC12 (stereo not given)	12.7 µM (active)
O=C(O)c1[nH]c2ccccc2c1C(c1cc(Cl)cc([N+](=O)[O-])c1O)c1c(C(=O)O)[nH]c2ccccc12	2.55 µM (active)
CCC(Sc1nc2ccsc2c(=O)n1Cc1ccc(C(=O)O)cc1)C(=O)Nc1ccc(C)c(Cl)c1 (stereo not given)	20 µM (active)
COc1cc(/C=N/NC(=O)C(Cc2c[nH]c3ccccc23)NC(=O)OCc2ccccc2)cc([N+](=O)[O-])c1O (stereo not given)	17.2 µM (active)
COc1cc(/C=N/NS(=O)(=O)c2ccc3ccccc3c2)ccc1OCc1ccc(C(=O)O)cc1	27 µM (active)
